The record followed here is ChEMBL document CHEMBL1165903, “Design and synthesis of 1,4-dihydropyridine derivatives as BACE-1 inhibitors” (Eur J Med Chem, 2010).

The structures appear in SMILES notation.

For one assay, the target named is T1, Beta-secretase 1 (Homo sapiens, UniProt P56817). The experiment in a line: Inhibition of BACE1 in human HEK293 cells transfected with pCDNA-neo-SEAP-APP assessed as secreted alkaline phosphatase after cleavage of beta-site of APP by fluorescence assay. The class given is cell-based.
T1 sequence (P56817 whole entry): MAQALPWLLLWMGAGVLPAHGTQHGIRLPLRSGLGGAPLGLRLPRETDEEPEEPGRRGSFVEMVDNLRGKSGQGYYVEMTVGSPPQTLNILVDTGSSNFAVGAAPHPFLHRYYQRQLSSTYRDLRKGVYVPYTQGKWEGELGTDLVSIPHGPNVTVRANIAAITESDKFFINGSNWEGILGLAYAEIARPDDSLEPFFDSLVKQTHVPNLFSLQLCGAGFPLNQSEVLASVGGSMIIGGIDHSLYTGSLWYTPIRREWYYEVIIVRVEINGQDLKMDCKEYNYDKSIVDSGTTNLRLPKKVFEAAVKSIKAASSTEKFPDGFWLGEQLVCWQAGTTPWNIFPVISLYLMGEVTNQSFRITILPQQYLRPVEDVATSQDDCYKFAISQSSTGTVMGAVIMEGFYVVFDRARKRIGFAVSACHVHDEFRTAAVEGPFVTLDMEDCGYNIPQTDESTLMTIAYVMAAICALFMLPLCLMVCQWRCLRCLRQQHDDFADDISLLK
As to `CC1=C(C(=O)N[C@@H](Cc2ccccc2)[C@H](O)CNC2CC2)C(C)C(C(=O)N[C@H](C)c2ccccc2)=C(C)N1S(C)(=O)=O` (stereo not given in full), the IC50 amounted to 16.1 µM.
Still for that read-out and setting: under `CC1=C(C(=O)NOCc2ccccc2)C(C)C(C(=O)N[C@@H](Cc2ccccc2)[C@H](O)CNC2CC2)=C(C)N1S(C)(=O)=O` (stereo not given in full) stands 14.9 µM.
Same read-out and setting: under `CCCC1C(C(=O)NOCc2ccccc2)=C(C)N(S(C)(=O)=O)C(C)=C1C(=O)N[C@@H](Cc1ccccc1)[C@H](O)CNC1CC1` (stereo not given in full) stands 8.1 µM; under `CC1=C(C(=O)NOCc2ccccc2)C(c2ccccc2)C(C(=O)N[C@@H](Cc2ccccc2)[C@H](O)CNC2CC2)=C(C)N1S(C)(=O)=O` (stereo not given in full), 21.4 µM.
Still for that read-out and setting: in the case of `COC(=O)CN1C(C)=C(C(=O)NOCc2ccccc2)C(C)C(C(=O)N[C@@H](Cc2ccccc2)[C@H](O)CNC2CC2)=C1C` (stereo not given in full) it was 15.2 µM.
Regarding `CCCC1C(C(C)=O)=C(C)N(CC(=O)OC(C)C)C(C)=C1C(=O)N[C@@H](Cc1ccccc1)[C@H](O)CNc1cccc(F)c1` (stereo not given in full), the IC50 was 27.1 µM.
On the same count and under the same terms, under `COc1cccc(CNC[C@@H](O)[C@H](Cc2ccccc2)NC(=O)C2=CN(CC(=O)OC(C)C)C(C)=C(C(C)=O)C2C)c1` (stereo not given in full) stands 26.1 µM; under `CCCC1C(C(C)=O)=C(C)N(CC(=O)OC(C)C)C(C)=C1C(=O)N[C@@H](Cc1ccccc1)[C@H](O)CNc1cccc(OC)c1` (stereo not given in full), 26.6 µM; under `CC1=C(C(=O)N[C@@H](Cc2ccccc2)[C@H](O)CNC2CC2)C(C)C(C(=O)OCc2ccccc2)=C(C)N1CC(=O)N(C)C` (stereo not given in full), 39.1 µM.
In the case of `CC1=C(C(=O)N[C@@H](Cc2ccccc2)[C@H](O)CNC2CC2)C(C)C(C(=O)OCc2ccccc2)=C(C)N1CC(=O)N(C)C(C)C` (stereo not given in full), the IC50 turned out to be 28.2 µM.
Same read-out and setting: under `CCCC1C(C(=O)N[C@@H](Cc2ccccc2)[C@H](O)CNc2cccc(OC)c2)=CN(CC(=O)OC(C)C)C=C1C(=O)OC(C)(C)C` (stereo not given in full) stands 30.4 µM.
The same measure, in the same setting: in the case of `CCCC1C(C(=O)N[C@@H](Cc2ccccc2)[C@H](O)CNC2CC2)=CN(CC(=O)OC(C)C)C=C1C(=O)N[C@H](C)c1ccccc1` (stereo not given in full) it was 29.6 µM.
The same measure, in the same setting: in the case of `CCCC1C(C(=O)N[C@@H](Cc2ccccc2)[C@H](O)CNc2cccc(OC)c2)=CN(CC(=O)OC(C)C)C=C1C(=O)N[C@H](C)c1ccccc1` (stereo not given in full) it was 31.2 µM.
For `CC(=O)C1=C(C)N(CC(=O)OC(C)C)C(C)=C(C(=O)N[C@@H](Cc2ccccc2)[C@H](O)CNc2cccc(F)c2)C1C` (stereo not given in full), the IC50 was determined as 26.4 µM.
On the same count and under the same terms, under `CCCC1C(C(C)=O)=C(C)N(CC(=O)OC(C)C)C(C)=C1C(=O)N[C@@H](Cc1ccccc1)[C@H](O)CNC1CC1` (stereo not given in full) stands 33.1 µM; under `CC(=O)C1=C(C)N(CC(=O)OC(C)C)C(C)=C(C(=O)N[C@@H](Cc2ccccc2)[C@H](O)CNC2CC2)C1C` (stereo not given in full), 29.3 µM.
Same read-out and setting: in the case of `CC(C)OC(=O)CN1C=C(C(=O)N[C@@H](Cc2ccccc2)[C@H](O)CNC2CC2)C(C)C(C(=O)OC(C)(C)C)=C1` (stereo not given in full) it was 31.9 µM.
Still for that read-out and setting: under `CCCC1C(C(=O)N[C@@H](Cc2ccccc2)[C@H](O)CNC2CC2)=CN(CC(=O)OC(C)C)C=C1C(=O)OC(C)(C)C` (stereo not given in full) stands 24.6 µM.
Regarding `CCC1C(C(=O)N[C@@H](Cc2ccccc2)[C@H](O)CNC2CC2)=C(C)N(S(C)(=O)=O)C(C)=C1C(=O)N[C@H](C)c1ccccc1` (stereo not given in full), the half-inhibitory concentration (IC50) turned out to be 16.2 µM.
On the same count and under the same terms, under `CCC1C(C(=O)NOCc2ccccc2)=C(C)N(S(C)(=O)=O)C(C)=C1C(=O)N[C@@H](Cc1ccccc1)[C@H](O)CNC1CC1` (stereo not given in full) stands 9.5 µM.
As to `CC1=C(C(=O)NOCc2ccccc2)C(C(C)C)C(C(=O)N[C@@H](Cc2ccccc2)[C@H](O)CNC2CC2)=C(C)N1S(C)(=O)=O` (stereo not given in full), the IC50 was determined as 11 µM.
On the same count and under the same terms, under `CC1=C(C(=O)NOCc2ccccc2)C(C)C(C(=O)N[C@@H](Cc2ccccc2)[C@H](O)CNC2CC2)=C(C)N1CC(=O)OC(C)C` (stereo not given in full) stands 9 µM; under `CCOC(=O)CN1C(C)=C(C(=O)NOCc2ccccc2)C(C)C(C(=O)N[C@@H](Cc2ccccc2)[C@H](O)CNC2CC2)=C1C` (stereo not given in full), 15.5 µM.
On the same count and under the same terms, under `CCCC1C(C(C)=O)=C(C)N(CC(=O)OC(C)C)C(C)=C1C(=O)N[C@@H](Cc1ccccc1)[C@H](O)CNCc1cccc(OC)c1` (stereo not given in full) stands 23.2 µM; under `CC(=O)OCCCN1C(C)=C(C(=O)N[C@@H](Cc2ccccc2)[C@H](O)CNC2CC2)C(C)C(C(=O)OCc2ccccc2)=C1C` (stereo not given in full), 26.9 µM.
On the same count and under the same terms, under `CC1=C(C(=O)N[C@@H](Cc2ccccc2)[C@H](O)CNC2CC2)C(C)C(C(=O)OCc2ccccc2)=C(C)N1CC(=O)N1CCOCC1` (stereo not given in full) stands 28.4 µM; under `CC1=C(C(=O)OCc2ccccc2)C(C)C(C(=O)N[C@@H](Cc2ccccc2)[C@H](O)CNC2CC2)=CN1CC(=O)OC(C)C` (stereo not given in full), 16.1 µM; under `CC(C)OC(=O)CN1C=C(C(=O)N[C@@H](Cc2ccccc2)[C@H](O)CNC2CC2)C(C)C(C(=O)N[C@H](C)c2ccccc2)=C1` (stereo not given in full), 32.8 µM.
Consider `CC(=O)C1=C(C)N(CC(=O)OC(C)C)C=C(C(=O)N[C@@H](Cc2ccccc2)[C@H](O)CNc2cccc(F)c2)C1C` (stereo not given in full), for which the IC50 worked out at 29.3 µM.

The target of another assay is T1, Beta-secretase 1. The experiment in a line: Inhibition of BACE1.
In the case of `CCNc1cc(C(=O)N[C@@H](Cc2ccccc2)[C@H](O)CNc2cccc(C(F)(F)F)c2)cc(N2CCCCS2(=O)=O)c1`, half-maximal inhibition (IC50) required 0.005 µM.
